Calls of active or inactive are those of the source. How the calls were made is not given here.
Test system: CCRIS mutagenicity, Ames/micronucleus/aberration tests
Assay: CCRIS mutagenicity studies
[1] = Test System: AMES SALMONELLA TYPHIMURIUM, Strain/Indicator: TA98, Metabolic Activation: NONE, Method: PREINCUBATION
[2] = Test System: AMES SALMONELLA TYPHIMURIUM, Strain/Indicator: TA100, Metabolic Activation: NONE, Method: PREINCUBATION
[3] = Test System: AMES SALMONELLA TYPHIMURIUM, Strain/Indicator: TA1535, Metabolic Activation: NONE, Method: PREINCUBATION
[4] = Test System: AMES SALMONELLA TYPHIMURIUM, Strain/Indicator: TA1537, Metabolic Activation: NONE, Method: PREINCUBATION

## CC1=CC[C@H]2C(C)=CC[C@@H](C(C)C)[C@@H]2C1
End Point: IN VITRO CHROMOSOMAL ABERRATIONS, Test System: CHINESE HAMSTER OVARY CELLS, Metabolic Activation: NONE
  mutagenic call: inactive; negative
End Point: IN VITRO CHROMOSOMAL ABERRATIONS, Test System: CHINESE HAMSTER OVARY CELLS, Metabolic Activation: RAT, LIVER, S-9, AROCLOR 1254
  mutagenic call: inactive; negative
Test System: AMES SALMONELLA TYPHIMURIUM, Strain/Indicator: TA98, Metabolic Activation: HAMSTER, LIVER, S-9, AROCLOR 1254, Method: PREINCUBATION
  mutagenic call: inactive; negative
[1]
  mutagenic call: inactive; negative
Test System: AMES SALMONELLA TYPHIMURIUM, Strain/Indicator: TA98, Metabolic Activation: RAT, LIVER, S-9, AROCLOR 1254, Method: PREINCUBATION
  mutagenic call: inactive; negative
Test System: AMES SALMONELLA TYPHIMURIUM, Strain/Indicator: TA100, Metabolic Activation: HAMSTER, LIVER, S-9, AROCLOR 1254, Method: PREINCUBATION
  mutagenic call: inactive; negative
[2]
  mutagenic call: inactive; negative
Test System: AMES SALMONELLA TYPHIMURIUM, Strain/Indicator: TA100, Metabolic Activation: RAT, LIVER, S-9, AROCLOR 1254, Method: PREINCUBATION
  mutagenic call: inactive; negative
Test System: AMES SALMONELLA TYPHIMURIUM, Strain/Indicator: TA1535, Metabolic Activation: HAMSTER, LIVER, S-9, AROCLOR 1254, Method: PREINCUBATION
  mutagenic call: inactive; negative
[3]
  mutagenic call: inactive; negative
Test System: AMES SALMONELLA TYPHIMURIUM, Strain/Indicator: TA1535, Metabolic Activation: RAT, LIVER, S-9, AROCLOR 1254, Method: PREINCUBATION
  mutagenic call: inactive; negative
Test System: AMES SALMONELLA TYPHIMURIUM, Strain/Indicator: TA1537, Metabolic Activation: HAMSTER, LIVER, S-9, AROCLOR 1254, Method: PREINCUBATION
  mutagenic call: inactive; negative
[4]
  mutagenic call: inactive; negative
Test System: AMES SALMONELLA TYPHIMURIUM, Strain/Indicator: TA1537, Metabolic Activation: RAT, LIVER, S-9, AROCLOR 1254, Method: PREINCUBATION
  mutagenic call: inactive; negative

## O=[N+]([O-])c1ccccc1S(=O)(=O)O
[1]
  mutagenic call: inactive; negative
Test System: AMES SALMONELLA TYPHIMURIUM, Strain/Indicator: TA98, Metabolic Activation: RAT, LIVER, S-9, KANECHLOR 500, Method: PREINCUBATION
  mutagenic call: inactive; negative
[2]
  mutagenic call: inactive; negative
Test System: AMES SALMONELLA TYPHIMURIUM, Strain/Indicator: TA100, Metabolic Activation: RAT, LIVER, S-9, KANECHLOR 500, Method: PREINCUBATION
  mutagenic call: inactive; negative

## CCCNC(=O)C=Cc1ccc([N+](=O)[O-])o1
[1]
  mutagenic call: active; positive

## O=C1C(Cl)=C(Cl)C(=O)c2ccccc21
Test System: AMES SALMONELLA TYPHIMURIUM, Strain/Indicator: TA97, Metabolic Activation: NONE, Method: PREINCUBATION
  mutagenic call: inactive; negative
Test System: AMES SALMONELLA TYPHIMURIUM, Strain/Indicator: TA97, Metabolic Activation: RAT, LIVER, S-9, PHENOBARBITAL AND 5,6-BENZOFLAVONE, Method: PREINCUBATION
  mutagenic call: active; positive
[1]
  mutagenic call: inactive; negative
Test System: AMES SALMONELLA TYPHIMURIUM, Strain/Indicator: TA98, Metabolic Activation: RAT LIVER S-9, PHENOBARBITAL AND BETA-NAPHTHOFLAVONE, Method: PREINCUBATION
  mutagenic call: inactive; negative
Test System: AMES SALMONELLA TYPHIMURIUM, Strain/Indicator: TA98, Metabolic Activation: RAT, LIVER, S-9, PHENOBARBITAL AND 5,6-BENZOFLAVONE, Method: PREINCUBATION
  mutagenic call: inactive; negative
Test System: AMES SALMONELLA TYPHIMURIUM, Strain/Indicator: TA100, Metabolic Activation: RAT LIVER S-9, PHENOBARBITAL AND BETA-NAPHTHOFLAVONE, Method: PREINCUBATION
  mutagenic call: inactive; negative
Test System: AMES SALMONELLA TYPHIMURIUM, Strain/Indicator: TA100, Metabolic Activation: RAT, LIVER, S-9, PHENOBARBITAL AND 5,6-BENZOFLAVONE, Method: PREINCUBATION
  mutagenic call: active; positive
Test System: AMES SALMONELLA TYPHIMURIUM, Strain/Indicator: TA102, Metabolic Activation: NONE, Method: PREINCUBATION
  mutagenic call: active; positive
Test System: AMES SALMONELLA TYPHIMURIUM, Strain/Indicator: TA102, Metabolic Activation: RAT, LIVER, S-9, PHENOBARBITAL AND 5,6-BENZOFLAVONE, Method: PREINCUBATION
  mutagenic call: active; positive
Test System: AMES SALMONELLA TYPHIMURIUM, Strain/Indicator: TA104, Metabolic Activation: NONE, Method: PREINCUBATION
  mutagenic call: active; positive
Test System: AMES SALMONELLA TYPHIMURIUM, Strain/Indicator: TA104, Metabolic Activation: RAT, LIVER, S-9, PHENOBARBITAL AND 5,6-BENZOFLAVONE, Method: PREINCUBATION
  mutagenic call: active; positive
[3]
  mutagenic call: inactive; negative
Test System: AMES SALMONELLA TYPHIMURIUM, Strain/Indicator: TA1535, Metabolic Activation: RAT LIVER S-9, PHENOBARBITAL AND BETA-NAPHTHOFLAVONE, Method: PREINCUBATION
  mutagenic call: inactive; negative
Test System: AMES SALMONELLA TYPHIMURIUM, Strain/Indicator: TA1535, Metabolic Activation: RAT, LIVER, S-9, PHENOBARBITAL AND 5,6-BENZOFLAVONE, Method: PREINCUBATION
  mutagenic call: inactive; negative
[4]
  mutagenic call: inactive; negative
Test System: AMES SALMONELLA TYPHIMURIUM, Strain/Indicator: TA1537, Metabolic Activation: RAT LIVER S-9, PHENOBARBITAL AND BETA-NAPHTHOFLAVONE, Method: PREINCUBATION
  mutagenic call: inactive; negative
Test System: AMES SALMONELLA TYPHIMURIUM, Strain/Indicator: TA1537, Metabolic Activation: RAT, LIVER, S-9, PHENOBARBITAL AND 5,6-BENZOFLAVONE, Method: PREINCUBATION
  mutagenic call: inactive; negative
Test System: AMES SALMONELLA TYPHIMURIUM, Strain/Indicator: TA1538, Metabolic Activation: NONE, Method: PREINCUBATION
  mutagenic call: inactive; negative
Test System: AMES SALMONELLA TYPHIMURIUM, Strain/Indicator: TA1538, Metabolic Activation: RAT LIVER S-9, PHENOBARBITAL AND BETA-NAPHTHOFLAVONE, Method: PREINCUBATION
  mutagenic call: inactive; negative
Test System: AMES SALMONELLA TYPHIMURIUM, Strain/Indicator: TA1538, Metabolic Activation: RAT, LIVER, S-9, PHENOBARBITAL AND 5,6-BENZOFLAVONE, Method: PREINCUBATION
  mutagenic call: inactive; negative
Test System: AMES SALMONELLA TYPHIMURIUM, Strain/Indicator: TA2637, Metabolic Activation: NONE, Method: PREINCUBATION
  mutagenic call: inactive; negative
Test System: AMES SALMONELLA TYPHIMURIUM, Strain/Indicator: TA2637, Metabolic Activation: RAT, LIVER, S-9, PHENOBARBITAL AND 5,6-BENZOFLAVONE, Method: PREINCUBATION
  mutagenic call: active; positive
Test System: E.COLI, Strain/Indicator: WP2UVRA, Metabolic Activation: NONE, Method: PREINCUBATION
  mutagenic call: inactive; negative
Test System: E.COLI, Strain/Indicator: WP2UVRA, Metabolic Activation: RAT LIVER S-9, PHENOBARBITAL AND BETA-NAPHTHOFLAVONE, Method: PREINCUBATION
  mutagenic call: inactive; negative

From PubChem BioAssay AID1259407 (Chemical Carcinogenesis Research Information System (CCRIS), 2018)
